Series [1] concerns NHIK 3025 cells. As to the kind of experiment: Protein synthesis (3[H]leucine incorporation) after photosensitizer, toxin and light. Format: cell-based, human. Here is the method:
FIG. 2 illustrates protein synthesis in NHIK 3025 cells after treatment with gelonin in the absence or presence of TPPS2a and 50 sec light exposure. Symbols: ◯, TPPS2a+light; ●, −TPPS2a−light; ∇, +TPPS2a−light; ▾, −TPPS2a+light. […] Protein synthesis was measured by measuring incorporation of ^3[H]leucine into proteins, 24 hours after light exposure.
(§1) NHIK 3025 cells were incubated with TPPS2a (Formula I) and gelonin, separately or together for 18 hours, followed by 1 hour in TPPS2a and gelonin-free medium before the cells were exposed to light. Protein synthesis was measured 24 hours after exposure to light. The photodynamic treatment, which kills 10-20% of the cells alone, reduced the protein synthesis by 30-40% (FIG. 2).
(§2) The intracellular location of the photosensitizers are lysosomal (TPPS4, TPPS2a, AlPcS2a) and extralysosomal (3-THPP). The following abbreviations are used: AlPcS2a for aluminum phtalocyanine with 2 sulfonate groups on adjacent phenyl rings; TPPS4 for meso-tetraphenylporphine with 4 sulfonate groups; TPPS2a for meso-tetraphenylporphine with 2 sulfonate groups on adjacent phenyl rings; 3-THPP for tetrahydroxylphenyl porphine. The cell lines used were carcinoma cells in situ from human cervix (NHIK 3025), Chinese hamster lung fibroblasts (V79), SV40-transformed African Green monkey kidney (CV1-simian fibroblasts-like cells) (Cos-7) human osteosarcoma cells (OHS) and small cell lung cancer cells (H146). All experiments were designed as in Example 1.

The test system of series [2] is NHIK 3025 cells. As to the kind of experiment: Cell killing / clonogenic survival after TPPS2a, gelonin and light. In kind it is cell-based, human. Here is the method:
as §1
NHIK 3025 cells were incubated with TPPS2a and gelonin according to the design of Example 1.
Clonogenic survival of the cells was measured 24 hours after exposure to light. […] This is in accordance with prior art regarding killing unwanted cells with PDT. […] Increased concentration of added gelonin leads to more gelonin in the cytosol, as indicated by an increased sensitivity of the cells to photoactivation.

In a further series the test system is lysosomal cathepsin. The series can be described thus: Inhibition of lysosomal cathepsin by photodynamic action. To be noted: culture of NHIK 3025 cells. In kind it is cell-based, human. The source says: This was a surprising effect of the present invention and assists in maintaining the viability and functionality of the cells after transporting molecules into cytosol by disrupting endosomal/lysosomal membranes.

The subject of series [3] is THX-cells. As to the kind of experiment: PCI-induced transfection of TPPS2a-treated THX-cells (Example 23). In kind it is cell-based, human. To be noted: 2 μg/ml TPPS2a, blue light 30-150 s, pEGFP-N1-polylysine complex. As for the experimental part:
FIG. 24 illustrates PCI induced transfection of TPPS2a-treated THX-cells. Cells were treated with TPPS2a and transfected with a complex of plasmid DNA and polylysine as described in the text of Example 23. After light treatment the cells were analysed by flow cytometry. The white circle represents the total population of living cells, the black sector represents the fraction of cells that was positive for GFP-expression. Light exposure times are indicated on the Figure.
A pEGFP-N1-polylysine complex (5 μg DNA, charge ratio 1.2 was prepared as described above (see Example 17).
THX-cells were seeded out into 6 well plates (60 000 cells per well). After overnight incubation 2 μg/ml of the photosensitizer TPPS2a was added and the cells were incubated further for 18 h at 37° C. The cells were then washed 3 times with culture medium and transfected with the pEGFP-N1-polylysine complex for 6 h. The transfected cells were washed once with medium, and after addition of 2 ml of culture medium the cells were exposed to blue light (Appl. Photophysics, Nood. 3026, London) for 30, 60, 90, 120 or 150 s (control cells were not exposed to the light) and incubated further at 37° C. After 2 days the cells were seeded out into bigger 3004 dishes and incubated further so that the total incubation time before flow cytometry analysis was 108 h.

A further series concerns V79 cells. As to the kind of experiment: Protein synthesis after photosensitizer and light with or without gelonin. In kind it is cell-based, Chinese hamster. To be noted: 25 μg/ml AlPcS2a. Here is the method:
FIG. 5 illustrates protein synthesis in V79 cells after treatment with 25 μg/ml AlPcS2 and light in the absence and presence of 1 μg/ml gelonin. Symbols: ● Photosensitizer+toxin; ◯ photosensitizer.
as §2
This example relates to use of the photosensitizer AlPcS2a in V79 cells with or without gelonin as the toxin (FIG. 5). […] (Moan, J., Berg, K., Anholt, H. and Madslien, K. (1994). Sulfonated aluminum phtalocyanines as sensitizers for photochemotherapy. Effects of small light doses on localization, dye fluorescence and photosensitivity in V79 cells. Int. J. Cancer 58: 865-870.)

Series [4] concerns THX-cells. As to the kind of experiment: Transfection efficiency after PCI with different doses of AlPcS2a (Example 20). In kind it is cell-based, human. To be noted: 5 or 40 μg/ml AlPcS2a, pEGFP-N1-polylysine complex, 2 or 4 min light. As for the experimental part: FIG. 21 illustrates transfection efficiency after PCI with different doses of AlPcS2a. Cells were treated with different doses of the photosensitizer, transfected with a plasmid DNA-polylysine complex and analysed by flow cytometry as described in the text of Example 20. the white bars represent an AlPcS2a dose of 5 μg/ml, while the black bars represent 40 μg/ml.
THX-cells were seeded out into 6 well plates (60 000 cells per well). After overnight incubation AlPcS2a in concentrations of 5 μg/ml or 40 μg/ml was added, and the cells were incubated for 18 h at 37° C. The cells were then washed 3 times with culture medium and transfected with pEGFP-N1-polylysine complex (amount of plasmid 5 μg/ml, charge ratio 1.2, see Example 17) for 6 h. The transfected cells were washed once with medium, and after addition of 2 ml of culture medium the cells were exposed to red light (Phillips TL 20 W/09, filtered through a Cinemoid 35 filter) for 2 or 4 min (control cells were not exposed to the light) and incubated further at 37° C. for 40 hrs before flow cytometry analysis (see Example 17).

A further series deals with H146 cells. As to the kind of experiment: Protein synthesis after TPPS2a and light with or without gelonin. The note with it: 0.3 μg/ml TPPS2a, 1 μg/ml gelonin. Format: cell-based. Here is the method: FIG. 6 illustrates protein synthesis in H146 cells after treatment with 0.3 μg/ml TPPS2a and light in the absence and presence of 1 μg/ml gelonin. Symbols as in FIG. 5.
as §2
(FIG. 6). TPPS2a is known to be lysosomally located in the cell. […]

The next series relates to COS-7 cells. Described as above. The note with it: 3 μg/ml TPPS2a, 1 μg/ml gelonin. Format: cell-based, African Green monkey. Here is the method: FIG. 11 illustrates protein synthesis in COS-7 cells after treatment with 3 μg/ml TPPS2a and light in the absence and presence of 1 μg/ml gelonin. Symbols as in FIG. 5.
as §2

The subject of another series is OHS cells. Described as above. Format: cell-based, human. To be noted: 3 μg/ml TPPS2a, 3 μg/ml gelonin, 50 μM chloroquine or 10 mM NH4Cl. Here is the method: FIG. 13 illustrates protein synthesis in OHS cells after treatment with 3 μg/ml TPPS2a for 18 hours followed by 4 hours in the absence of TPPS2a and in the absence or presence of 3 μg/ml gelonin before exposure to light. The cells were incubated for the same 4 hours in 50 μM chloroquine or 10 mM NH4Cl to inhibit lysosomal protein degradation.
as §2
(FIG. 13). In this cell line there is a considerable protein degradation in the lysosomes, which in the present example is inhibited by incubating the cells for 4 hours in either 50 μM chloroquine or 10 mM NH4Cl.

The next series has as its system THX human melanoma cells. The series can be described thus: PCI relocalization of fluorescein-labeled ribozyme (fluorescence microscopy). In kind it is cell-based. As for the experimental part:
FIG. 14 illustrates subcellular localization of a fluorescein-ribozyme (5.5 μM) and AlPcS2a (20 μg/ml) in THX cells after 18 h incubation followed by 1 h wash. The Figure illustrates localization without light exposure (A) and after 10 min red light exposure followed by 40 min incubation in the dark (B). (Magnification 40×2.5).
The ribozyme employed in this example was a 37-mer synthetic 2′-O-methylated ribozyme designed against mRNA of the metastasis associated protein capl. The sequence (SEQ ID NO:1) was as follows:
5′-UAGUUCUCU GAUGAGGCCGNUAGGCCGAAA CUUGUU Y-3′, (SEQ ID NO: 1) where N is bases with 2′-O-methylated ribose, Y is uridine with a 3′-3′ inverted thymidine at the 3′ end, N is fluorescein attached to uracil.
To study the intracellular localization of the photosensitizer AlPcS2a and the ribozyme, THX human melanoma cells were plated on 16 well Lab-Tek (Nunc Inc.) chamber slides (3000 cells well^−1). After 18 h the culture medium was replaced with fresh RPMI medium supplemented with 10% fetal calf serum (FCS, Integro b.v., Holland) and containing […] AlPcS2a and […] ribozyme. […]
Control cells were observed without irradiation. […] Phase-contrast and fluorescence micrographs were recorded by means of a cooled charge-coupled device (CCD) camera (Astromed 3200, Cambridge, England).

“Also recorded” adds a separate entry of the source. [FluoU] = uridine (ribose) carrying fluorescein on the base; {invT} = 3'-3' inverted thymidine; m = 2'-O-methyl; r = 2'-OH (RNA)

For the compound `Oc1cccc(-c2c3nc(c(-c4cccc(O)c4)c4ccc([nH]4)c(-c4cccc(O)c4)c4nc(c(-c5cccc(O)c5)c5ccc2[nH]5)C=C4)C=C3)c1` [3-THPP, tetrahydroxylphenyl porphine, reference compound], the “difference in protein synthesis effect with or without gelonin” value with NHIK 3025 cells [1] (0.25 μg/ml 3-THPP, light, 1 μg/ml gelonin, comparative example) is “no significant difference”.
Turning to `O=S(=O)(O)c1ccc(-c2c3nc(c(-c4ccc(S(=O)(=O)O)cc4)c4ccc([nH]4)c(-c4ccccc4)c4nc(c(-c5ccccc5)c5ccc2[nH]5)C=C4)C=C3)cc1` [TPPS2a, meso-tetraphenylporphine with 2 sulfonate groups on adjacent phenyl rings], the “reduction of protein synthesis by the photodynamic treatment alone” value with NHIK 3025 cells [1] (TPPS2a and light, no gelonin, 24 hours after light) was 30-40%. Further, the “cells killed by the photodynamic treatment alone” value in the series on NHIK 3025 cells [2] (TPPS2a and light, no gelonin) is listed as 10-20%. In the series on NHIK 3025 cells [2] (light exposure increased, 24 hours after light), the “clonogenic survival with TPPS2a and light” value is listed as “virtually all cells were killed”. In addition, the “inhibition of lysosomal cathepsin by photodynamic action” value in the series on lysosomal cathepsin was “substantially inhibited”. Moreover, in the series with THX-cells [3], the “transfection-enhancing effect of PCI light treatment with TPPS2a as photosensitizer” value is on record as “substantial transfection-enhancing effect; also recorded: essentially the same as for AIPcS2a”.
Consider “aluminum phtalocyanine with 2 sulfonate groups on adjacent phenyl rings [AlPcS2a, reference compound]”, for which the “protein synthesis with photosensitizer and light, without toxin” value with V79 cells (selected light dose) is on record as “small reduction in protein synthesis”. Further, the “percentage of transfected cells versus photosensitizer concentration” value in the series on THX-cells [4] is “increased with increasing photosensitizer concentration”.
As to gelonin, in the series with NHIK 3025 cells [1] (3.2 μg/ml TPPS2a, 50 sec light, measured 24 hours after light), the “IC50 of gelonin for inhibition of protein synthesis when combining PDT and gelonin” value came to 0.2 µg/mL. Further, the “transport of gelonin into cells with TPPS4 and light” value in the series on NHIK 3025 cells [1] (75 μg/ml TPPS4, 50 sec light, different gelonin concentrations) was “demonstrates transport of gelonin into NHIK 3025 cells”. Besides, in the series on NHIK 3025 cells [1] (gelonin alone with light, or TPPS4 and gelonin without light), the “transport of gelonin into cells in controls” value is recorded as “no transport of gelonin into the cells was obtained”. Also, in the series on NHIK 3025 cells [1] (gelonin alone, presence or absence of light, no PDT), the “effect of gelonin alone on protein synthesis” value is given as “inhibits protein synthesis to some extent”. Also, the “clonogenic survival when gelonin is added to TPPS2a and light” value with NHIK 3025 cells [2] (0.2 or 2.0 μg/ml gelonin) is “the survival rate drops”. The “protein synthesis with photosensitizer, light and gelonin” value in the series with V79 cells (1 μg/ml gelonin) was “profoundly reduced”. The entries for the “transport of toxin into cells by TPPS2a and light” value with H146 cells, in the series with COS-7 cells and in the series on OHS cells were “transport of the toxin gelonin into H146 cells without essentially affecting the viability of the cells”, “demonstrates the transport of gelonin into COS-7 cells” and “demonstrates the transport of gelonin into OHS cells”, respectively.
For “ribozyme: 37-mer synthetic 2′-O-methylated fluorescein-labeled ribozyme designed against mRNA of the metastasis associated protein capl (SEQ ID NO:1) (UAGUUCUCUGAUGAGGCCGUUAGGCCGAAACUUGUUY; sugars from the 5' end mmmmmmmmmrrmrrrrmmrrrrrrmmrrrrmmmmmmr, [FluoU] at 20, 3' {invT}, backbone and the base at N not given here)”, in the series on THX human melanoma cells (5.5 μM ribozyme, 20 μg/ml AlPcS2a, 18 h, no light), the “subcellular localization, nonirradiated cells” value was “mainly localized in intracellular granules”. Moreover, in the series on THX human melanoma cells (10 min red light, then 40 min), the “subcellular localization after light exposure” value was “most of the ribozyme fluorescence was present in the cytosol”.
As to saporin, the “transport of toxin into cells by TPPS2a and light” value in the series with NHIK 3025 cells [1] (3.2 μg/ml TPPS2a, 1 μg/ml toxin) was “demonstrates transport of the toxin saporin into NHIK 3025 cells”.

The values above are taken from US6680301B2, “Transfer of molecules into the cytosol of cells” (Photocure AS, priority 1994, dated 2004).
